Measured values from paper PMC11678425, “(-)-Syringaresinol Exerts an Antidepressant-like Activity in Mice by Noncompetitive Inhibition of the Serotonin Transporter” (Pharmaceuticals, 2024).

Key:
hSERT L565A [1] = target: T1, hSERT L565A (Homo sapiens, UniProt P31645, L565A); assay: ASP^+ binding, hSERT L565A; settings: S2 site mutant, read-out: SYR IC50 for Binding
T1 construct: forward and reverse primers were used to amplify a full-length hSERT; expressed in transfected cells; host or cells: HeLa
T1 sequence (P31645 whole entry L565A): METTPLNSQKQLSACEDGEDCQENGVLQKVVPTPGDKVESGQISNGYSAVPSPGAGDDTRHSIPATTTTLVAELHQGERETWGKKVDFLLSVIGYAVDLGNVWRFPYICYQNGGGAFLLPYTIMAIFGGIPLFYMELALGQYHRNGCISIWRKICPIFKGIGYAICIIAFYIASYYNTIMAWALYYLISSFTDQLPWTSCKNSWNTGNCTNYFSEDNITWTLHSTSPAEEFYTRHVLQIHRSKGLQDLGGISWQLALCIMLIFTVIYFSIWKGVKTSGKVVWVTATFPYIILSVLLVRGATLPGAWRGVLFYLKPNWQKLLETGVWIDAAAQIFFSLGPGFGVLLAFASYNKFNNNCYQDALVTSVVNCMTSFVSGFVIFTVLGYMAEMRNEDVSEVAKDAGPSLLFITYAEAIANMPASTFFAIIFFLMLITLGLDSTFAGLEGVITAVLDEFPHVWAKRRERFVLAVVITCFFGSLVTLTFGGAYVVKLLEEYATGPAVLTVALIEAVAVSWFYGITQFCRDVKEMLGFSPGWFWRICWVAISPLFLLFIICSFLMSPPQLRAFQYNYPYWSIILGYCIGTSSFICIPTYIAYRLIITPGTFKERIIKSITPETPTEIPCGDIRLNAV

hSERT WT = target: T2, hSERT WT (Homo sapiens, UniProt P31645); assay: ASP^+ binding, hSERT WT; settings: digitonin-permeabilized cells, read-out: SYR IC50 for Binding
T2 construct: forward and reverse primers were used to amplify a full-length hSERT; expressed in transfected cells; host or cells: HeLa cells (CCL-2), transient, pcDNA3.1

hSERT D328A = target: T3, hSERT D328A (Homo sapiens, UniProt P31645, D328A); assay: APP^+ uptake, hSERT D328A; type: cell-based; settings: S2 site mutant, read-out: SYR IC50 for Transport
T3 construct: forward and reverse primers were used to amplify a full-length hSERT; expressed in transfected cells; host or cells: HeLa cells, transient, pcDNA3.1
T3 sequence (P31645 whole entry D328A): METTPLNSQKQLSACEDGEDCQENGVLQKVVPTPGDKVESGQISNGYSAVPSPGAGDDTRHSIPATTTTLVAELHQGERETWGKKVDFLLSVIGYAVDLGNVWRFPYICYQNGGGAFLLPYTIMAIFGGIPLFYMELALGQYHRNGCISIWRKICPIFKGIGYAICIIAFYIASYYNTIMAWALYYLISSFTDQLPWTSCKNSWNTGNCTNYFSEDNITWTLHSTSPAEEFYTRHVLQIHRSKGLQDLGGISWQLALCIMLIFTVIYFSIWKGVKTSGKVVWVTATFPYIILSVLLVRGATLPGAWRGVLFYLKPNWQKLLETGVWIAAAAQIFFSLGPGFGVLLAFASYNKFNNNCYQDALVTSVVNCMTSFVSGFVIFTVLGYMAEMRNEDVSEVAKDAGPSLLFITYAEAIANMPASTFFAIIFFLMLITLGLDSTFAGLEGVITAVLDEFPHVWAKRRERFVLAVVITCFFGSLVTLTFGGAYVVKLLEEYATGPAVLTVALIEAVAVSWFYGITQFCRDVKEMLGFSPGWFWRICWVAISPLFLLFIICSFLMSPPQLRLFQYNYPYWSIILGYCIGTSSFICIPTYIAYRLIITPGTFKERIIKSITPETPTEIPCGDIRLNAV

hSERT F556A = target: T4, hSERT F556A (Homo sapiens, UniProt P31645, F556A); assay: APP^+ uptake, hSERT F556A; type: cell-based; settings: S2 site mutant, read-out: SYR IC50 for Transport
T4 construct: forward and reverse primers were used to amplify a full-length hSERT; expressed in transfected cells; host or cells: HeLa cells, transient, pcDNA3.1
T4 sequence (P31645 whole entry F556A): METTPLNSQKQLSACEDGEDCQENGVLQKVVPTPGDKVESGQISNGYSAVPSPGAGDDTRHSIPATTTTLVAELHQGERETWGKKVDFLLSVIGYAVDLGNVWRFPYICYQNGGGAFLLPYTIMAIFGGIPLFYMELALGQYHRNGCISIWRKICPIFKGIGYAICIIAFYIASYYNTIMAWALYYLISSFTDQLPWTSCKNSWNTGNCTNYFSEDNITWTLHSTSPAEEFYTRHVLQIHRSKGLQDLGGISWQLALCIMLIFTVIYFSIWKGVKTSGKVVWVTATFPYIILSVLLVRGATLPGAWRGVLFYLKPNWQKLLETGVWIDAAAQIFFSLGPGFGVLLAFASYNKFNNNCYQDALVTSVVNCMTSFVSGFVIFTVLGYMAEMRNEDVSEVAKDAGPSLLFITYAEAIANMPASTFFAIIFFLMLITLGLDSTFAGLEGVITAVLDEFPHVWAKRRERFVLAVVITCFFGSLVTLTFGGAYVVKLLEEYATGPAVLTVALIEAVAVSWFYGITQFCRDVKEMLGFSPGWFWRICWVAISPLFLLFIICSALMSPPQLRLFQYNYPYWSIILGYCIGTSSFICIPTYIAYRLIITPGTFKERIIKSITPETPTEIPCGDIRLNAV

[2] = test system: BDNF, PSD-95, GluA1, and vGluT1; assay: Immunoblot of synaptic proteins in mPFC of CUMS mice; type: in vivo, mouse; settings: SYR administration
Procedure: Figure 7 SYR effects on the expression of c-Fos and synaptic proteins in mPFC. (A) Representative immunohistochemical images of c-Fos expression in mPFC under the indicated treatments. Immunohistochemistry of c-Fos was performed with mPFC slices as described in Section 4. The slices were re-probed with anti-DAPI antibody. Immunofluorescence images for c-Fos (green) and DAPI (blue) were acquired by confocal microscopy. (B) Quantitative analysis for c-Fos expression in mPFC with various treatments. Protein expression is expressed as a percentage of c-Fos fluorescence measured in the control group. Bars represent the mean ± SEM (n = 4). * p < 0.05, ** p < 0.01 compared with the control or CUMS group by one-way ANOVA followed by post hoc tests, respectively. […] (D–G) Quantification of the expression of the synaptic proteins BDNF (D), PSD-95 (E), GluA1 (F), and vGluT1 (G). The expression level is expressed as a percentage of the integrated density obtained from the control group. […]
Synaptic proteins were extracted from mPFC or hippocampus tissues using RIPA lysis buffer, respectively. Expression of the indicated proteins under various treatments was then analyzed by immunoblotting, as previously reported. […] Quantification of immunoreactive protein bands was performed using Image J v1.53u, and GAPDH was used as an internal reference to normalize expression levels of those proteins, respectively.

hSERT P499G = target: T5, hSERT P499G (Homo sapiens, UniProt P31645, P499G); assay: APP^+ uptake, hSERT P499G; type: cell-based; settings: S2 site mutant, read-out: SYR IC50 for Transport
T5 construct: forward and reverse primers were used to amplify a full-length hSERT; expressed in transfected cells; host or cells: HeLa cells, transient, pcDNA3.1
T5 sequence (P31645 whole entry P499G): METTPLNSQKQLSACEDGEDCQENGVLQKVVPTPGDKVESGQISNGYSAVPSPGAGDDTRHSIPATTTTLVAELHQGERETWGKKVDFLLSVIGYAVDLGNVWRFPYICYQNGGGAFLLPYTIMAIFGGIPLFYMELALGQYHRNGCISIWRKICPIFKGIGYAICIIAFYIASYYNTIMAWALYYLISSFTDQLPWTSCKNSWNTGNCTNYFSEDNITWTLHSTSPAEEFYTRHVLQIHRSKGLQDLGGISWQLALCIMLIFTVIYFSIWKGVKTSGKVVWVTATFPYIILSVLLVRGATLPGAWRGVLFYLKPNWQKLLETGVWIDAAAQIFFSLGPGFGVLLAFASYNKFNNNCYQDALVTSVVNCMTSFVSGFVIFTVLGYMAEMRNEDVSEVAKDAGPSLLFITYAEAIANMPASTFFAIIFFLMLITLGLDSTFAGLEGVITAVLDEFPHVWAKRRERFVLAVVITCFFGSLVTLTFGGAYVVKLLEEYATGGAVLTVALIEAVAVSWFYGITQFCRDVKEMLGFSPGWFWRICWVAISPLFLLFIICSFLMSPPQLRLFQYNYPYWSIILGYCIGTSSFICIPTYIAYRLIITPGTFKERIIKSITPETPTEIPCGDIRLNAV

hSERT L565A [3] = target: T1, hSERT L565A; assay: APP^+ uptake, hSERT L565A; type: cell-based; settings: S2 site mutant, read-out: SYR IC50 for Transport
hSERT Q111N [4] = target: T6, hSERT Q111N (Homo sapiens, UniProt P31645, Q111N); assay: APP^+ uptake, hSERT Q111N; type: cell-based; settings: S2 site mutant, read-out: SYR IC50 for Transport
T6 construct: forward and reverse primers were used to amplify a full-length hSERT; expressed in transfected cells; host or cells: HeLa cells, transient, pcDNA3.1
T6 sequence (P31645 whole entry Q111N): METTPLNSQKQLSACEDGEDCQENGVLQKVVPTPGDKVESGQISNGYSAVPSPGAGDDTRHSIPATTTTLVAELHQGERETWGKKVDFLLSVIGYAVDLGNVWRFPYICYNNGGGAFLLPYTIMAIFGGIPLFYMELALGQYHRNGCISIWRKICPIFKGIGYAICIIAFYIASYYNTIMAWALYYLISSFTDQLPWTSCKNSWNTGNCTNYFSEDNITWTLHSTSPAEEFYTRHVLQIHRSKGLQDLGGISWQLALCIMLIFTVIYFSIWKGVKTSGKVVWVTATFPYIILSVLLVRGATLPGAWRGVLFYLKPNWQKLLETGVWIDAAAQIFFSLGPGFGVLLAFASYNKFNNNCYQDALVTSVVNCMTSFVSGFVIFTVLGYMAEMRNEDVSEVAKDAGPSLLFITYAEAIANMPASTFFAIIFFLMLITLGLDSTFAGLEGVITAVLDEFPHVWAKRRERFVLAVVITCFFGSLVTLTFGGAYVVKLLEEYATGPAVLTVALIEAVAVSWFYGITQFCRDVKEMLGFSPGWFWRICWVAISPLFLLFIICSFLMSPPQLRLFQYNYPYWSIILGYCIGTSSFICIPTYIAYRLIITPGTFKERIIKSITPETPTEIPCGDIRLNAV

hSERT T583A = target: T7, hSERT T583A (Homo sapiens, UniProt P31645, T583A); assay: APP^+ uptake, hSERT T583A; type: cell-based; settings: S2 site mutant, read-out: SYR IC50 for Transport
T7 construct: forward and reverse primers were used to amplify a full-length hSERT; expressed in transfected cells; host or cells: HeLa
T7 sequence (P31645 whole entry T583A): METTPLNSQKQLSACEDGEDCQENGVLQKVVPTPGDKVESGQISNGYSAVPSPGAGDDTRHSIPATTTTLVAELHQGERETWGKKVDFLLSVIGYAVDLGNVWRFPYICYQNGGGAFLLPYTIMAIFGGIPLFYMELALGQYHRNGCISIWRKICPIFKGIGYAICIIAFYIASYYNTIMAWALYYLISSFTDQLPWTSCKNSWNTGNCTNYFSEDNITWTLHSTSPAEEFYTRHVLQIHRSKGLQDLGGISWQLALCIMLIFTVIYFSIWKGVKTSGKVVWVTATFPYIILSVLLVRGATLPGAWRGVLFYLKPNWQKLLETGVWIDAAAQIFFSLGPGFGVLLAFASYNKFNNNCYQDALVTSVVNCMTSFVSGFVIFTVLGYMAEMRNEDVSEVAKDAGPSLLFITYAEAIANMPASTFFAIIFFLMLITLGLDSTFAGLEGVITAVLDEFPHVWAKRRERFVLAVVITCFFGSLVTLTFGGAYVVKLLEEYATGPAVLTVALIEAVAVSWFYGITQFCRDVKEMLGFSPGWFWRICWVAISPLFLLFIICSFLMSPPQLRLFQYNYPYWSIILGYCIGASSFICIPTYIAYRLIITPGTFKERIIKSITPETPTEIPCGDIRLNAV

hSERT P561G = target: T8, hSERT P561G (Homo sapiens, UniProt P31645, P561G); assay: APP^+ uptake, hSERT P561G; type: cell-based; settings: S2 site mutant, read-out: SYR IC50 for Transport
T8 construct: forward and reverse primers were used to amplify a full-length hSERT; expressed in transfected cells; host or cells: HeLa
T8 sequence (P31645 whole entry P561G): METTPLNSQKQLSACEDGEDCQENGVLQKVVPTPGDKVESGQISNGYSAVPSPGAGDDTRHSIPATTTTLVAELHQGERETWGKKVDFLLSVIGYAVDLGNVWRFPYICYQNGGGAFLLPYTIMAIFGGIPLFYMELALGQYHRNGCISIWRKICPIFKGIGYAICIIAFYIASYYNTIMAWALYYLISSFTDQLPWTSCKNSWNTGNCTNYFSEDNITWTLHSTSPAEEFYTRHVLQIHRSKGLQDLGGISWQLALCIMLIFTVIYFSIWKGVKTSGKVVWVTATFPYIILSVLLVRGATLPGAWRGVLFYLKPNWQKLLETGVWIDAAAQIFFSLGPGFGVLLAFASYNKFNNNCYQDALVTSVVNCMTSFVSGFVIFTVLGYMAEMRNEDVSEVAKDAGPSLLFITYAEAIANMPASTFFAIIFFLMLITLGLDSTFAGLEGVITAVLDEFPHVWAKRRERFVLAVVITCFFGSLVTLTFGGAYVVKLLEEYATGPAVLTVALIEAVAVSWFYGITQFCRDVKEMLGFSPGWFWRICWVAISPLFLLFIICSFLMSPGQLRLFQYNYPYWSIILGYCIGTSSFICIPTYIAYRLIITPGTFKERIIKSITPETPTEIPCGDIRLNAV

[5] = test system: hSERT S1 mutants (Y95F, I172F, S438T); assay: ASP^+ binding, S1 site mutants compared with WT; design: species or system human; settings: Tyr95 to Phe, Ile172 to Phe, Ser438 to Thr
Procedure: HeLa cells were cultured in Dulbecco’s Modified Eagle’s Medium supplemented with 10% fetal bovine serum, 100 units/mL penicillin, and 100 μg/mL streptomycin at 37 °C in a humidified 5% CO2 incubator. Cells grown at ~70% confluence in a 6 cm culture dish were transfected with hSERT cDNA in pcDNA3.1 by lipofectamine 2000. Transfected cells were incubated for 12 h at 37 °C with 5% CO2 and then transferred into 96-well plates. After being grown for an additional 12–16 h, the cells were then assayed for APP^+ uptake or ASP^+ binding.
ASP^+ binding to SERT expressed on the cell surface was measured with digitonin-permeabilized cells as described previously. The cells expressing WT or mutants of hSERT were incubated with 10 μM ASP^+ in the presence of 25 μg/mL digitonin at 22 °C for 5 min. After removing excess ASP^+ by 3× rapid washing, ASP^+ fluorescence retained in the cell membrane was determined by fluorescence spectrometry.
hSERT mutants were generated using the Mut Express II Fast Mutagenesis kit (Vazyme, Nanjing, China). Briefly, forward and reverse primers were used to amplify a full-length hSERT. The PCR products were then digested with restriction enzymes, excised from agarose gels, and ligated into pcDNA3.1. All mutations were confirmed by full-length DNA sequencing.

hSERT = hSERT (Homo sapiens, UniProt P31645); type: cell-based; design: forward and reverse primers were used to amplify a full-length hSERT; expressed in transfected cells; host or cells: HeLa
hSERT Q111N [6] = target: T6, hSERT Q111N; assay: ASP^+ binding, hSERT Q111N; settings: S2 site mutant, read-out: SYR IC50 for Binding
hSERT L563A = target: T9, hSERT L563A (Homo sapiens, UniProt P31645, L563A); assay: ASP^+ binding, hSERT L563A; settings: S2 site mutant, read-out: SYR IC50 for Binding
T9 construct: forward and reverse primers were used to amplify a full-length hSERT; expressed in transfected cells; host or cells: HeLa
T9 sequence (P31645 whole entry L563A): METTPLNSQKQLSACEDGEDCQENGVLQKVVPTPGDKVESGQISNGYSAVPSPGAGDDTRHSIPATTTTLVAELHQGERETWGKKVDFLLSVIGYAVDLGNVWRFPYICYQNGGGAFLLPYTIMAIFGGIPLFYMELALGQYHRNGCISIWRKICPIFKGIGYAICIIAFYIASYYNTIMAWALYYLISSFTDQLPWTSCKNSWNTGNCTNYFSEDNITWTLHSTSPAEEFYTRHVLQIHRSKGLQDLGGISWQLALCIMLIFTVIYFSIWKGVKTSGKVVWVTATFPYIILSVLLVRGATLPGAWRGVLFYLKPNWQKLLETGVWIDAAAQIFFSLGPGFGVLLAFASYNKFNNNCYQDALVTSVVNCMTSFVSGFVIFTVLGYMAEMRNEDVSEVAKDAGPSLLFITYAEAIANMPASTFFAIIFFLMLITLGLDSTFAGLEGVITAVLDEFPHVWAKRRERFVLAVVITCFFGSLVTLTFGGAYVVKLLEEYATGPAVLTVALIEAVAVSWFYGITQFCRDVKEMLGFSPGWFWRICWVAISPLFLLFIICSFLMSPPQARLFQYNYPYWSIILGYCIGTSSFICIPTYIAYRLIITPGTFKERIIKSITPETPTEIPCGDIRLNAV

SMILES: COc1cc([C@@H]2OC[C@@H]3[C@H]2CO[C@H]3c2cc(OC)c(O)c(OC)c2)cc(OC)c1O [SYR, (-)-syringaresinol]
- IC50 (hSERT L565A [1]): 21 ± 0.45 µM
- IC50 (hSERT WT): 0.96 ± 0.02 µM
- IC50 (hSERT D328A): 19.6 ± 1.21 µM
- IC50 (hSERT F556A): 7.39 ± 1.12 µM
- CUMS-induced reduction in expression of synaptic proteins BDNF, PSD-95, GluA1, vGluT1 in mPFC [2]: attenuated
- IC50 (hSERT P499G): 11 ± 1.43 µM
- IC50 (hSERT L565A [3]): 9.98 ± 1.22 µM
- IC50 (hSERT Q111N [4]): 17.7 ± 0.45 µM
- IC50 (hSERT T583A): 8.68 ± 1.4 µM
- IC50 (hSERT P561G): 46.3 ± 0.94 µM
- effect of S1 site mutations on SYR inhibition of ASP^+ binding [5]: little effect
- hSERT expression on the cell surface (hSERT): did not alter
- IC50 (hSERT Q111N [6]): 115 ± 2.47 µM
- IC50 (hSERT L563A): 39 ± 0.92 µM
